Assay results: ChEMBL document CHEMBL5247641, “Discovery of Potent DYRK2 Inhibitors with High Selectivity, Great Solubility, and Excellent Safety Properties for the Treatment of Prostate Cancer” (J Med Chem, 2023)
Active and inactive are the calls of the source. The calls are words filed in the database; no cut-off is given here.

Experiments:
DU-145 [1] = test: Antitumor activity against human DU-145 xenografted in BALB/c nude mouse as downregulation of c-MYC level in tumor at 100 to 200 mg/kg,po administrated once daily for 21 days by Western blot analysis; type: functional, organism-based; conditions: dose 100-200 mg/kg, time 21.0 day
[2] = Cytotoxicity against human RWPE-1 cells assessed as inhibition of cell proliferation incubated for 3 days by CCK-8 assay; type: toxicity, cell-based
CWR22R [3] = test: Antimigratory activity against human 22Rv1 cells assessed as inhibition of cell migration at 1 to 8 uM incubated for 24 hrs by transwell migration assay; type: functional, cell-based; conditions: dose 1-8 µM
DU-145 [4] = test: Antimigratory activity against human DU-145 cells assessed as upregulation of E-cadherin expression level at 2 to 8 uM incubated for 24 hrs by Western blot analysis; type: functional, cell-based; conditions: dose 2-8 µM
CWR22R [5] = test: Antiproliferative activity against human 22Rv1 cells assessed as increase in p27 expression level at 2 to 8 uM incubated for 24 hrs by Western blot analysis; type: functional, cell-based; conditions: dose 2-8 µM
[6] = Acute toxicity in ICR mouse assessed as change in lung weight at 1000 to 10000 mg/kg,po and measured after 14 days; type: organism-based; conditions: in vivo, 336 h, dose 1000-10000 mg/kg, time 14 day
DU-145 [7] = test: Antiproliferative activity against human DU-145 cells assessed as inhibition of cell proliferation incubated for 3 days by CCK-8 assay; type: functional, cell-based; conditions: DU-145, 72 h
DU-145 [8] = test: Antitumor activity against human DU-145 xenografted in BALB/c nude mouse as downregulation of p-4E-BP1 level in tumor at 100 to 200 mg/kg,po administrated once daily for 21 days by Western blot analysis; type: functional, organism-based; conditions: dose 100-200 mg/kg, time 21.0 day
DU-145 [9] = test: Antitumor activity against human DU-145 xenografted in BALB/c nude mouse as upregulation of cleaved PARP level in tumor at 100 to 200 mg/kg,po administrated once daily for 21 days by Western blot analysis; type: functional, organism-based; conditions: dose 100-200 mg/kg, time 21.0 day
DU-145 [10] = test: Induction of cell cycle arrest in human DU-145 cells assessed as accumulation of cells at G2 phase at 4 uM incubated for 24 hrs by propidium iodide based flow cytometric analysis (Rvb= 17.52%); type: functional
CWR22R [11] = test: Induction of apoptosis in human 22Rv1 cells assessed as increase in cleaved PARP level at 2 to 8 uM incubated for 24 hrs by Western blot analysis; type: functional, cell-based; conditions: dose 2-8 µM
CWR22R [12] = test: Induction of cell cycle arrest in human 22Rv1 cells assessed as accumulation of cells at S phase at 2 uM incubated for 24 hrs by propidium iodide based flow cytometric analysis (Rvb=20.51 %); type: functional
DU-145 [13] = test: Induction of apoptosis in human DU-145 cells assessed as apoptotis rate at 4 uM incubated for 24 hrs by Annexin V-FITC and PI staining based flow cytometry (Rvb= 4.36%); type: functional
DU-145 [14] = test: Antitumor activity against human DU-145 xenografted in BALB/c nude mouse assessed as tumor growth inhibition at 100 mg/kg,po qd for 21 days; type: functional, organism-based; conditions: time 21.0 day
DU-145 [15] = test: Antitumor activity against human DU-145 xenografted in BALB/c nude mouse as upregulation of p53 level in tumor at 100 to 200 mg/kg,po administrated once daily for 21 days by Western blot analysis; type: functional, organism-based; conditions: dose 100-200 mg/kg, time 21.0 day
DU-145 [16] = test: Induction of apoptosis in human DU-145 cells assessed as increase in cleaved PARP level at 2 to 8 uM incubated for 24 hrs by Western blot analysis; type: functional, cell-based; conditions: dose 2-8 µM
DU-145 [17] = test: Antitumor activity against human DU-145 xenografted in BALB/c nude mouse assessed as tumor growth inhibition at 200 mg/kg,po administrated once daily for 21 days; type: functional, organism-based; conditions: time 21.0 day
CWR22R [18] = test: Antiproliferative activity against human 22Rv1 cells assessed as inhibition of cell proliferation incubated for 3 days by CCK-8 assay; type: functional, cell-based; conditions: 22Rv1, 72 h
DU-145 [19] = test: Induction of cell cycle arrest in human DU-145 cells assessed as accumulation of cells at G1 phase at 4 uM incubated for 24 hrs by propidium iodide based flow cytometric analysis (Rvb= 53.46%); type: functional
DU-145 [20] = test: Induction of cell cycle arrest in human DU-145 cells assessed as accumulation of cells at S phase at 4 uM incubated for 24 hrs by propidium iodide based flow cytometric analysis (Rvb= 29.02%); type: functional
DU-145 [21] = test: Antitumor activity against human DU-145 xenografted in BALB/c nude mouse as inhibition of tumor cell proliferation at 100 to 200 mg/kg,po administrated once daily for 21 days by Ki67 staining based microscopic analysis; type: functional, organism-based; conditions: dose 100-200 mg/kg, time 21.0 day
[22] = Acute toxicity in ICR mouse assessed as appearance of lesions in kidney at 5000 to 10000 mg/kg,po and measured after 14 days by H and E staining based microscopic analysis; type: organism-based; conditions: in vivo, 336 h, dose 5000-10000 mg/kg, time 14 day
CWR22R [23] = test: Induction of cell cycle arrest in human 22Rv1 cells assessed as accumulation of cells at S phase at 4 uM incubated for 24 hrs by propidium iodide based flow cytometric analysis (Rvb=20.51 %); type: functional
DU-145 [24] = test: Induction of cell cycle arrest in human DU-145 cells assessed as accumulation of cells at G1 phase at 1 uM incubated for 24 hrs by propidium iodide based flow cytometric analysis (Rvb= 53.46%); type: functional
[25] = Acute toxicity in ICR mouse assessed as abnormal body weight change at 1000 to 10000 mg/kg,po and measured upto 14 days; type: organism-based; conditions: in vivo, 336 h, dose 1000-10000 mg/kg, time < 14 day
CWR22R [26] = test: Antimigratory activity against human 22Rv1 cells assessed as upregulation of E-cadherin expression level at 2 to 8 uM incubated for 24 hrs by Western blot analysis; type: functional, cell-based; conditions: dose 2-8 µM
[27] = Acute toxicity in ICR mouse assessed as change in liver weight at 1000 to 10000 mg/kg,po and measured after 14 days; type: organism-based; conditions: in vivo, 336 h, dose 1000-10000 mg/kg, time 14 day
DU-145 [28] = test: Induction of apoptosis in human DU-145 cells assessed as increase in p53 level at 2 to 8 uM incubated for 24 hrs by Western blot analysis; type: functional, cell-based; conditions: dose 2-8 µM
[29] = Toxicity in BALB/c nude mouse xenografted with human DU-145 assessed as body weight change at 100 to 200 mg/kg,po qd administrated once daily for 21 days; type: organism-based; conditions: in vivo, 504 h, dose 100-200 mg/kg, time 21 day
DU-145 [30] = test: Induction of cell cycle arrest in human DU-145 cells assessed as accumulation of cells at G2 phase at 2 uM incubated for 24 hrs by propidium iodide based flow cytometric analysis (Rvb= 17.52%); type: functional
CWR22R [31] = test: Induction of cell cycle arrest in human 22Rv1 cells assessed as accumulation of cells at G1 phase at 1 uM incubated for 24 hrs by propidium iodide based flow cytometric analysis (Rvb= 55.28%); type: functional
DU-145 [32] = test: Antiproliferative activity against human DU-145 cells assessed as increase in p27 expression level at 2 to 8 uM incubated for 24 hrs by Western blot analysis; type: functional, cell-based; conditions: dose 2-8 µM
CWR22R [33] = test: Antiproliferative activity against human 22Rv1 cells assessed as inhibition of clone formation at 1 to 8 uM incubated for 2 weeks by crystal violet staining based assay; type: functional, cell-based; conditions: dose 1-8 µM
DU-145 [34] = test: Antimigratory activity against human DU-145 cells assessed as inhibition of cell migration at 1 to 8 uM incubated for 24 hrs by transwell migration assay; type: functional, cell-based; conditions: dose 1-8 µM

Cl.O=C(c1ccc(Nc2ncc(F)c(-c3ccc4scnc4c3)n2)nc1)N1CCNCC1
Activity (DU-145 [1]): Active | IC50 at 3 days [2]: 25 µM | Activity (CWR22R [3]): Active | Activity (DU-145 [4]): Active | Activity (CWR22R [5]): Active | Activity [6]: Non-Toxic | IC50 (DU-145 [7]): 1.26 µM | Activity (DU-145 [8]): Active | Activity (DU-145 [9]): Active | Activity (DU-145 [10]): 12.12% | Activity (CWR22R [11]): Active | Activity (CWR22R [12]): 14.24% | Activity (DU-145 [13]): 7.86% | Activity (DU-145 [14]): Active | Activity (DU-145 [15]): Active | Activity (DU-145 [16]): Active | Activity (DU-145 [17]): Active | IC50 (CWR22R [18]): 2.56 µM | Activity (DU-145 [19]): 68.51% | Activity (DU-145 [20]): 19.37% | Activity (DU-145 [21]): Active | Activity [22]: Non-Toxic | Activity (CWR22R [23]): 13.85% | Activity (DU-145 [24]): 54.77% | Activity [25]: Non-Toxic | Activity (CWR22R [26]): Active | Activity [27]: Non-Toxic | Activity (DU-145 [28]): Active | Activity [29]: Non-Toxic | Activity (DU-145 [30]): 12.78% | Activity (CWR22R [31]): 60.51% | Activity (DU-145 [32]): Active | Activity (CWR22R [33]): Active | Activity (DU-145 [34]): Active
